Laboratory results reported in patent US20060292158A1, “Method for the treatment of cancer using a novel pharmaceutical composition containing at least one dolastatin 10 derivative” (priority 2004, published 2006).

Key:
[1] = test system: KPL-4 human breast carcinoma xenograft; assay: Antitumor activity in KPL-4 orthotopic xenograft in athymic nude mice, combination with pertuzumab (Example 2); type: in vivo; conditions: monotherapy 3, 4 or 6 mg/kg; day 21
Protocol: The KPL-4 human breast carcinoma cell line was kindly donated by Prof. Kurebayashi, Kawasaki Medical Center. The cells were cultured in Dulbecco's MEM (Sigma Chemical Co.) supplemented with 5% (v/v) fetal bovine serum (Roche Diagnostics).
One hundred (100) 5-week-old female athymic nude mice (BALB/c nu/nu) were purchased from Charles River Japan, Inc. (Yokohama, Japan). The mice were housed in an air-conditioned room (temperature 22±2° C., relative humidity 55±10%) under 12 h light/dark cycles. The mice were given sterilized CE-2 and tap water with 25μg/mL gentamycin ad libitum. […]
The In vivo evaluation procedure for anticancer drugs was based on methods described by Plowman, et al. (1997) for xenograft models. […] The tumor volume and body weight of each mouse were measured twice a week. […] One week after the final injection, tumor growth inhibition (TGI) was calculated using the formula (1-T/C)×100 (%), where T (treated group) and C (control group) represent the mean tumor volume change. ED50 values were calculated from values of tumor growth inhibition on day 21 using the XL fit program. […]
Packaged software (SAS preclinical package version 5.0, SAS Institute Japan, Ltd.) was used for the statistical analysis. […] ED50s were calculated from values of tumor growth inhibition percentage using XL fit program #509 (MS Excel Add-In: XLfit3 Version 3.0.5 Build 12, ID Business Solutions Ltd.)

[2] = test system: NCI-H460 human large cell lung carcinoma xenograft; assay: Antitumor activity in NCI-H460 subcutaneous xenograft in athymic nude mice, combination with cisplatin (Example 4); type: in vivo; conditions: day 12
Protocol: The NCI-H460 human large cell lung carcinoma cell line was purchased from American Type Culture Collection (MD, U.S.A.). The cells were cultured in RPMI-1640 medium (cat. # R8758, lot 12K2310, exp 01/03; lot 82K2497, exp 08/03; Sigma-Aldrich corporation, MO, U.S.A.) supplemented with 10% (v/v) fetal bovine serum (cat. # 047115, lot # 31300124; Roche Diagnostics KK, Tokyo, Japan).
Sixty of 5-week-old male athymic nude mice (BALB/c nu/nu) were purchased from Charles River Japan, Inc. (Yokohama, Japan). All mice were kept for 8 days in the animal facility of Kamakura Research Laboratories of Chugai Pharmaceutical Co., Ltd. before subjection to the experiment.
The title compound was synthesized at Kamakura Research Laboratories of Chugai Pharmaceutical Co., Ltd. CDDP (Randa™, lot # 924150) was obtained from Nippon Kayaku Co., Ltd. (Tokyo, Japan). The title compound was dissolved in dimethyl sulfoxide (DMSO) and diluted into 2.5 % DMSO solution with saline (for Injection; Ohtsuka Pharmaceutical Industry Co., Ltd., Tokushima, Japan) at the date of administration. CDDP was diluted with saline at the date of administration.
The in vivo evaluation procedure for anticancer drugs was based on the methods described by Plowman, et al. (1997) for xenograft models. See, “Anticancer Drug Development Guide: Preclinical Screening, Clinical Trials, and Approval, Teicher B (ed) pp. 101-125, specifically Chap. 6, “Human Tumor Xenograft Models in NCI Drug Development”, hereby incorporated by reference. A single cell suspension of NCI-H460 (5.6×10^6 cells per mouse) was inoculated subcutaneously into the right flank of each mouse. The tumor volume was estimated by using the equation ab^2/2, where a and b represent tumor length and width, respectively. Mice bearing tumors of between 150 and 245 mm^3 were selected on day 7 after tumor inoculation and were randomly divided into 8 groups, consisting of 5 mice each. Mean tumor volume and body weight of the selected mice were 187 mm3 and 24.3 g, respectively. Drug administration was initiated after mice were divided into groups. The title compound (2 mg/kg or 3 mg/kg), CDDP (5 mg/kg or 6.7 mg/kg) and each vehicle were administered intravenously. Tumor volume and body weight of each mouse were measured twice a week. […] Tumor growth inhibition was calculated using the equation (1-ΔT/ΔC)×100, where ΔT represents the difference in tumor volume from the initial treatment date of the treated group and ΔC represents the difference in tumor volume from the initial treatment date of the vehicle group.

`CC[C@H](C)[C@@H]([C@@H](CC(=O)N1CCC[C@H]1[C@H](SC)[C@@H](C)C(=O)N(C)CCc1cccc(O)c1)OC)N(C)C(=O)[C@@H](NC(=O)[C@H](C(C)C)N(C)C)C(C)C` [compound of formula (I-A), N-[1-({1-sec-Butyl-4-[2-(2-{[2-(3-hydroxy-phenyl)-ethyl]-methyl-carbamoyl}-1-methylsulfanyl-propyl)-pyrrolidin-1-yl]-2-methoxy-4-oxo-butyl}-methyl-carbamoyl)-2-methyl-propyl]-2-dimethylamino-3-methyl-butyramide] was tested, and the “volume of tumor in comparison with control” value [1] was “decreased strongly”, the “reduction of tumor growth” value ([2]; 2 mg/kg (1/3 MTD) i.v. weekly x3) was 45% and the “reduction of tumor growth” value ([2]; 3 mg/kg (1/2 MTD) i.v. weekly x3) was 93%.
